The target of assay [1] is Cyclin-dependent kinase 5/CDK5 activator 1 (Homo sapiens) (UniProt Q00535+Q15078). The assay is described as follows: Selectivity interaction (Kinase panel (Z-LYTE Assay)) EUB0001632a CDK5. It is filed as protein-complex assay. The note with it: at 10 µM.
The target in assay [2] is Serine/threonine-protein kinase VRK2 (Homo sapiens) (UniProt Q86Y07). The experiment in a line: Selectivity interaction (Ambit KINOMEscan and KiNATiv profiling in Jurkat cells) EUB0000090b VRK2. In kind it is cell-based. The note with it: at 1 µM.
Assay [3] has as its target T1, Mitogen-activated protein kinase kinase kinase 12 (Homo sapiens) (UniProt Q12852).
T1 sequence (whole entry): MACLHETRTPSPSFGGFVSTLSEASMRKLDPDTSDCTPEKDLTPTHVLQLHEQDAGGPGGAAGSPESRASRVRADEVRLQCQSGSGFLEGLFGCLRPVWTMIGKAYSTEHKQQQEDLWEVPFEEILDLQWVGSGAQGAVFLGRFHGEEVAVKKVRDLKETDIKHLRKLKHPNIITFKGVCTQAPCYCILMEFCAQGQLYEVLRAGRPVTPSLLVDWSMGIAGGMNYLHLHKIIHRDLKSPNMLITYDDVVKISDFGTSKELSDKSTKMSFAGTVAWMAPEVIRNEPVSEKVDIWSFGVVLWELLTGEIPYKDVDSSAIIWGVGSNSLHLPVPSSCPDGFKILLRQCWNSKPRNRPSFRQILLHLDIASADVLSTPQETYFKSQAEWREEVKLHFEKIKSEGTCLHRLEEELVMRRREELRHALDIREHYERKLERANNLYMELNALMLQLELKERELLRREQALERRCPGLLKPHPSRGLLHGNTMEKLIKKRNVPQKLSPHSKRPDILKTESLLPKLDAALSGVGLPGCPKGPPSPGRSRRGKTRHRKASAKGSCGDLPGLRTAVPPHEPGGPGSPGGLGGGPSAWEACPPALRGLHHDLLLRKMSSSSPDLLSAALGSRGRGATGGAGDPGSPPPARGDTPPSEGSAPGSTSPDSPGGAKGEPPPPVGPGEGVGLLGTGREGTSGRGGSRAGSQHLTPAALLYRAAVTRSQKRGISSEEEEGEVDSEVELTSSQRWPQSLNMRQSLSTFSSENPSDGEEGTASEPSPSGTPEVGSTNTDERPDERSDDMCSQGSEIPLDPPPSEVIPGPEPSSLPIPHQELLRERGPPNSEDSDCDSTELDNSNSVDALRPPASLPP
The experiment in a line: Selectivity interaction (KinomeScan (DiscoverX)) EUB0000655a MAP3K12. The note with it: at 10 µM.

Assay [4] has as its target T2, Serine/threonine-protein kinase NLK (Homo sapiens) (UniProt Q9UBE8).
T2 sequence (whole entry): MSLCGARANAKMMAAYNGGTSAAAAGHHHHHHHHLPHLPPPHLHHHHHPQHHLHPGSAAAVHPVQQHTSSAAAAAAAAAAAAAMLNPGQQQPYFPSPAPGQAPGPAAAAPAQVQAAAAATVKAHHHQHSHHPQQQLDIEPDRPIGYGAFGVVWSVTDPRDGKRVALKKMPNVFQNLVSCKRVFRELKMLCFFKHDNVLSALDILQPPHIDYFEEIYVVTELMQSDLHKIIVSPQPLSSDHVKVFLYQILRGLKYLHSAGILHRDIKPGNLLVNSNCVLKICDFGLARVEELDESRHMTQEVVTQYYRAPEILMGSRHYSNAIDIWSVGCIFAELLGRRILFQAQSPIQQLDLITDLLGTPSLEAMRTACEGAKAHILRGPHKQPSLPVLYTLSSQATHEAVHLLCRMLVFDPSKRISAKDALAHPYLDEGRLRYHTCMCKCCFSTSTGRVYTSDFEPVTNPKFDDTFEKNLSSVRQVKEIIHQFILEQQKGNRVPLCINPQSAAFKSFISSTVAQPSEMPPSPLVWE
The assay is described as follows: Selectivity interaction (KinomeScan (DiscoverX)) EUB0001619a NLK. The note with it: at 1 µM.

In assay [5] the target is T3, Dual specificity protein kinase TTK (Homo sapiens) (UniProt P33981).
T3 sequence (whole entry): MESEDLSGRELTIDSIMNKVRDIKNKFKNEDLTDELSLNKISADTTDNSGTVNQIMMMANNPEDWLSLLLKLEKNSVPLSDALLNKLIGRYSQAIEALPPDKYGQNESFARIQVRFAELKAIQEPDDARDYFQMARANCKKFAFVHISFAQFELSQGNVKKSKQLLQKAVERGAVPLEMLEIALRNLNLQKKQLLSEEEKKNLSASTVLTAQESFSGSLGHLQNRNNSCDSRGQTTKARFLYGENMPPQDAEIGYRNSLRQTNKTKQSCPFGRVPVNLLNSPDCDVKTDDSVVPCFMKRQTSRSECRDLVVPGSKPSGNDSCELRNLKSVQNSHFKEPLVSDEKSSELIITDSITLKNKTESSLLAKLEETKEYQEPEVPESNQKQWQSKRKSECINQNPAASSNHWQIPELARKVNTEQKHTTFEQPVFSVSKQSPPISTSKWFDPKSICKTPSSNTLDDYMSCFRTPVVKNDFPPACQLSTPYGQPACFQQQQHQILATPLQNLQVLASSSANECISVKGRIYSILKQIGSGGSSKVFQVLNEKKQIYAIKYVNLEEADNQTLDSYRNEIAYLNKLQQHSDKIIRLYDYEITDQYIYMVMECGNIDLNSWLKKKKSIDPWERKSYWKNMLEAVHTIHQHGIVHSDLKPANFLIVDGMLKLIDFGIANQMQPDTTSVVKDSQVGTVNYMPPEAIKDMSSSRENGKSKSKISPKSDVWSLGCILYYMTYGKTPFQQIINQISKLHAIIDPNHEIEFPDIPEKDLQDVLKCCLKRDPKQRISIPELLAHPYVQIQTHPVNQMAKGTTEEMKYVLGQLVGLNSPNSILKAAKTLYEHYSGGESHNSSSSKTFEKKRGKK
The assay is described as follows: Selectivity interaction (KinomeScan (DiscoverX)) EUB0000618a TTK. The note with it: at 10 µM.

Molecules are shown by their SMILES.

Sequence of Cyclin-dependent kinase 5/CDK5 activator 1 (Homo sapiens) (Q00535 whole entry): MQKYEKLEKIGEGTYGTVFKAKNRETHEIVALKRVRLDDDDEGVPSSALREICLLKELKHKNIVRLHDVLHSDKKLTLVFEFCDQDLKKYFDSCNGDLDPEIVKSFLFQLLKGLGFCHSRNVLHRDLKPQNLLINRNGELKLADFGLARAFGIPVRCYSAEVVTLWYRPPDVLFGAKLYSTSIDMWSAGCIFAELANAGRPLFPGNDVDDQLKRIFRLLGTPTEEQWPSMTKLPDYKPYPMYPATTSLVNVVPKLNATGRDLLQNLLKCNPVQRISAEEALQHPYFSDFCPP
Sequence of Cyclin-dependent kinase 5/CDK5 activator 1 (Homo sapiens) (Q15078 99-307 partner limits assumed): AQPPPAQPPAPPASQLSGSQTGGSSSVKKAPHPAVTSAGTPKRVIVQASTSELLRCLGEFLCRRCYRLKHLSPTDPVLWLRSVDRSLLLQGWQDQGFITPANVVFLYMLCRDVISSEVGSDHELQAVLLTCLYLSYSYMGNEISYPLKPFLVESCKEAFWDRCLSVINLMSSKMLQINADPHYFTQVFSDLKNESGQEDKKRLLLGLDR
Sequence of Serine/threonine-protein kinase VRK2 (Homo sapiens) (Q86Y07 whole entry): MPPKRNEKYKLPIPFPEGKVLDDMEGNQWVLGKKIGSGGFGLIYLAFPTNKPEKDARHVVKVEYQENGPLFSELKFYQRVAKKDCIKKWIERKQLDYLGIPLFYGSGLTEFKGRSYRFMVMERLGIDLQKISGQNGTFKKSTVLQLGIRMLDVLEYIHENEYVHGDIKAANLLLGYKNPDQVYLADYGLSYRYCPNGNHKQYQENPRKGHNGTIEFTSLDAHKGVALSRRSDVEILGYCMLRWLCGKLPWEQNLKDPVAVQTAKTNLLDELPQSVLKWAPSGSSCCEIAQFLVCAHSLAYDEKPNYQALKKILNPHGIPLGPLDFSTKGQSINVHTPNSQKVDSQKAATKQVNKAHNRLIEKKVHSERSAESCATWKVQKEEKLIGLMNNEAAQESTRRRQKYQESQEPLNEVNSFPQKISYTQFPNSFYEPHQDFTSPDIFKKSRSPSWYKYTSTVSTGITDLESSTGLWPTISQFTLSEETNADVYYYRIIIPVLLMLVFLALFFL

Compound `Cn1cc(-n2cnc3c(NCc4nc5cc(Cl)c(Cl)cc5[nH]4)nc(N4CCOCC4)nc32)cn1` yielded a % of control in assay [1] of 5.78%.
As for `CN(C)C/C=C/C(=O)Nc1ccc(C(=O)N2CCCC(Nc3ncc(Cl)c(-c4c[nH]c5ccccc45)n3)C2)cc1` (stereo not given), the % of control in assay [2] came out at 97%.
With `CN(C)CCOc1ccc(-c2nc(-c3ccncc3)c(-c3ccc4c(c3)CC/C4=N\O)[nH]2)cc1`, the % of control in assay [3] amounted to 49%.
With `N#Cc1cccc(-c2c[nH]c3ncnc(N4CCOCC4)c23)c1`, the % of control in assay [4] amounted to 85%.
As for `O[C@H]1CC[C@H](Nc2ncc3nc(Nc4c(F)cc(F)cc4F)n([C@H]4CCOC4)c3n2)CC1`, the % of control in assay [5] was determined as 85%.

The values are drawn from ChEMBL document CHEMBL5465560, “Selectivity Literature for EUbOPEN Chemogenomic Library” (2024).
